Assay results reported in patent US20060183778A1, “Osteogenesis-promotion enhancer and method of screening the same” (priority 2003, published 2006).

Key:
Assay type in all cases: cell-based
[1] = test system: C2C12 cells; test: Test Example 4: influence of serum (FBS) concentration on ALP activity of C2C12 cells; details: compound A 1 μM, rhBMP-4 50 ng/ml, FBS 2.5%, 5%, 10% or 20%, 9 days
Description: After the respective cells were cultured for 9 days, a degree of progression of bone differentiation was examined by staining with an alkaline phosphatase (ALP) staining kit #85-3R (Sigma). […] Regarding the respective cells, the ALP activity was measured in the same manner as in Test Example 1.

[2] = test system: C2C12 cells; test: Test Example 1: bone differentiation of C2C12 cells, alkaline phosphatase (ALP) staining and ALP activity; details: 9 days
Description: After the respective cells were cultured for 9 days, a degree of progression of bone differentiation was examined by staining with an alkaline phosphatase (ALP) staining kit #85-3R (Sigma). Quantitative analysis of an ALP activity was conducted according to the Fujii et al. method (e.g., see Fujii M et al, “Mol Biol Cell.” published by American Society for Cell Biology (U.S.A.), 1999, vol. 10, p. 3801-3813] by using a Sigma Fast p-nitrophenyl phosphate tablet set. A protein concentration of each extract was measured by a DC protein assay (Bio-Rad) using a bovine serum albumin as a standard substance.

[3] = test system: Human mesenchymal stem cells (hMSCs); test: Test Example 2: calcium accumulation of human mesenchymal stem cells by the von Kossa method; details: serum-free medium, compound A 1 μM with rhBMP-4 50 ng/ml
Description: (§1) Quantitative analysis of an ALP activity was conducted in the same manner as in Test Example 1. Accumulation of calcium was measured through visualization by the von Kossa method. That is, the respective cells were immobilized with a phosphate buffered saline (PBS) containing 3% glutaraldehyde, and washed with PBS and with distilled water. The immobilized cells were reacted with 2.5% silver nitrate for 60 minutes while applying light, then washed, and developed with 0.5% hydroquinone for 2 minutes. Excess silver was washed away with a 5% sodium thiosulfate solution.

[4] = test system: Human mesenchymal stem cells (hMSCs); test: Test Example 2: ALP activity of human mesenchymal stem cells; details: serum-free medium, compound A 1 μM with rhBMP-4 50 ng/ml
Description: as §1, with “After the respective cells were cultured for 9 days, a degree of progression of bone differentiation was examined by staining with an alkaline phosphatase (ALP) staining kit #85-3R (Sigma). […] Quantitative” for “Quantitative”

## NC(=O)c1ccc(-c2nc(-c3ccc4c(c3)OCO4)c(-c3ccccn3)[nH]2)cc1 [compound A, 4-(4-benzo[1,3]dioxol-5-yl-5-pyridin-2-yl-1H-imidazol-2-yl)benzamide]
[1]
  activity to enhance the acceleration of osteogenesis (ALP staining / ALP activity) as a function of FBS concentration: decreased with the increase in FBS concentration
[2]; compound A 1 μM with rhBMP-4 50 ng/ml, 5% fetal bovine serum
  activity of accelerating bone differentiation by stimulation of rhBMP-4 (ALP staining / ALP activity): enhanced
[2]; compound A (1 μM) alone, without rhBMP-4, 5% fetal bovine serum
  activity of accelerating bone differentiation of C2C12 cells (ALP staining): not observed
[3]
  calcium accumulation induced with rhBMP-4 (von Kossa staining): further enhanced
[4]
  increase in ALP activity induced with rhBMP-4: further enhanced
